# Data taken from patent US20180305332A1, “Bispiperidinyl Derivatives as Liver X Receptor Beta Agonists, Compositions, and Their Use” (Merck Sharp & Dohme Corp., priority 2015, published 2018).
# Legend:
# [1] = biological target: T1, GST tagged LXRalpha LBD (ligand binding domain) (Homo sapiens, UniProt Q13133); test: LanthaScreen TR-FRET Liver X Receptor Coactivator Assay, LXR alpha-LBD; format: biochemical; details: relative to reference T0901317; for EC50 / LXR alpha IP (nM): Inflection Point (potency), co-activator recruitment; for EC50: read-out: LXR alpha IP; for Emax: activity at max dose (efficacy), read-out: LXR alpha act @ max dose (%)
# T1 construct: purchased Invitrogen pv4655
# T1 sequence (Q13133 209-447 limits assumed): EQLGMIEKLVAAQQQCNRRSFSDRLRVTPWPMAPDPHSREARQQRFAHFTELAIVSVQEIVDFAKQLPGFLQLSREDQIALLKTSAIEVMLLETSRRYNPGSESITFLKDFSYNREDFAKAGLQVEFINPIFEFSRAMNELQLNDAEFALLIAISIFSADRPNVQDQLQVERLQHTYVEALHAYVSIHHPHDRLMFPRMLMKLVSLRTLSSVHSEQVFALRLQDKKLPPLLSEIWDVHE
# Protocol: (§1) Potency (Inflection Point, IP) and efficacy (Emax) are evaluated via compound-induced co-activator recruitment to glutathione-S-transferase (GST) tagged LXRbeta and LXRalpha LBD (ligand binding domain) proteins in relation to reference dual agonist compound T0901317 (N-(2,2,2-Trifluoroethyl)-N-[4-[2,2,2-trifluoro-1-hydroxy-1-(trifluoromethyl)ethyl] phenyl]benzenesulfonamide) using the LanthaScreen™ TR-FRET Liver X Receptor Coactivator Assays according to manufacturer's instructions (Invitrogen catalog number pv4658.pps and pv4655). While running the LanthaScreen™ TR-FRET Liver X Receptor Coactivator Assay, LXR alpha-LBD or LXR beta-LBD was added to ligand test compounds followed by addition of a mixture of a fluorescein-labelled coactivator peptide and terbium-conjugated anti-GST antibody. After an incubation period at room temperature, TR-FRET (time-resolved fluorescence resonance energy transfer) was measured using a filter-based instrument capable of TR-FRET, e.g. PerkinElmer Envision.
# [2] = biological target: T2, GST tagged LXRbeta LBD (ligand binding domain) (Homo sapiens, UniProt P55055); test: LanthaScreen TR-FRET Liver X Receptor Coactivator Assay, LXR beta-LBD; format: biochemical; details: relative to reference T0901317; for EC50: Inflection Point (potency), co-activator recruitment, read-out: LXR beta IP; for Emax: activity at max dose (efficacy), read-out: LXR beta act @ max dose (%)
# T2 construct: purchased Invitrogen pv4658.pps
# T2 sequence (P55055 222-460 limits assumed): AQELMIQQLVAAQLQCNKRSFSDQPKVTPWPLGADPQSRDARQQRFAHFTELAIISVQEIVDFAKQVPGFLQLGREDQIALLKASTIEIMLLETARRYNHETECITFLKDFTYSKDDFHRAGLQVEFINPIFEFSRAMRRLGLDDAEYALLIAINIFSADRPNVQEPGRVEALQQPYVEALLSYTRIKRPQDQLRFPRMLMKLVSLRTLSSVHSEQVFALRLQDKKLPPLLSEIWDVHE
# Protocol: as §1
Structure (SMILES),EC50 [1] [nM],Emax [1] [%],EC50 [2] [nM],Emax [2] [%],LXR alpha IP (nM) [1]
"CC(C)(C)OC(=O)NC1CN(C(=O)c2ccc(N3CCC(C4CCN(C(=O)[C@](O)(c5ccccc5)C(F)(F)C(F)(F)F)CC4)CC3)cc2Cl)C1 [Example E-65, tert-butyl {1-[(2-chloro-4-{1′-[(2R)-3,3,4,4,4-pentafluoro-2-hydroxy-2-phenylbutanoyl]-4,4′-bipiperidin-1-yl}phenyl)carbonyl]azetidin-3-yl}carbamate]",635,64,17,137,–
"COc1cccc([C@](O)(C(=O)N2CCC(C3CCN(c4ccc(C(=O)N(C)C)c(Cl)c4)CC3)CC2)C(F)(F)F)c1 (single isomer, unassigned) [Example A-66]",2480,21,251,90,–
"CN(C)C(=O)c1ccc(N2CCC(C3CCN(C(=O)OCc4c(Cl)cccc4Cl)CC3)CC2)cc1Cl [Example A-108, 2,6-dichlorobenzyl 1′-[3-chloro-4-(dimethylcarbamoyl)phenyl]-4,4′-bipiperidine-1-carboxylate]",522,74,8,131,–
"CCCC(O)(C(=O)N1CCC(C2CCN(c3ccc(C(=O)N(C)C)c(Cl)c3)CC2)CC1)C(F)(F)F (stereo not drawn) [Example A-70, 2-chloro-4-{1′-[2-hydroxy-2-(trifluoromethyl)pentanoyl]-4,4′-bipiperidin-1-yl}-N,N-dimethylbenzamide]",3000,52,177,109,–
"CN(C)C(=O)c1ccc(N2CCC(C3CCN(C(=O)C(O)(c4cccc(Cl)c4)C(F)(F)F)CC3)CC2)cc1Cl (stereo not drawn) [Example A-50, 2-chloro-4-{1′-[2-(3-chlorophenyl)-3,3,3-trifluoro-2-hydroxypropanoyl]-4,4′-bipiperidin-1-yl}-N,N-dimethylbenzamide]",1010,20,93,99,–
"O=C(c1ccc(N2CCC(C3CCN(C(=O)[C@](O)(c4ccccc4)C(F)(F)F)CC3)CC2)cc1Cl)N1CC(n2cccn2)C1 [Example E-40, (2R)-3-[1′-(3-chloro-4-{[3-(1H-pyrazol-1-yl)azetidin-1-yl]carbonyl}phenyl)-4,4′-bipiperidin-1-yl]-1,1,1-trifluoro-3-oxo-2-phenylpropan-2-ol]",–,39,297,52,NO IP
"CC1(C)CCN(C(=O)c2ccc(N3CCC(C4CCN(C(=O)[C@](O)(c5ccccc5)C(F)(F)F)CC4)CC3)cc2Cl)C1 [Example E-28, (2R)-3-(1′-{3-chloro-4-[(3,3-dimethylpyrrolidin-1-yl)carbonyl]phenyl}-4,4′-bipiperidin-1-yl)-1,1,1-trifluoro-3-oxo-2-phenylpropan-2-ol]",–,15,200,57,NO IP
"CN(C)C(=O)c1ccc(N2CCC(C3CCN(S(=O)(=O)c4ccccc4C(F)(F)F)CC3)CC2)cc1Cl [Example A-101, 2-chloro-N,N-dimethyl-4-(1′-{[2-(trifluoromethyl)phenyl]sulfonyl}-4,4′-bipiperidin-1-yl)benzamide]",618,65,8,138,–
"CN(C)C(=O)c1ccc(N2CCC(C3CCN(C(=O)[C@](O)(c4ccccc4)C(F)(F)C(F)(F)F)CC3)CC2)nc1Cl (single isomer, unassigned) [Example B-16]",1340,17,89,91,–
"O=C(c1ccc(N2CCC(C3CCN(C(=O)[C@](O)(c4ccccc4)C(F)(F)F)CC3)CC2)cc1Cl)N1CC[C@H](F)C1 [Example E-26, (2R)-3-[1′-(3-chloro-4-{[(3S)-3-fluoropyrrolidin-1-yl]carbonyl}phenyl)-4,4′-bipiperidin-1-yl]-1,1,1-trifluoro-3-oxo-2-phenylpropan-2-ol]",1450,25,279,92,–
"CCN(C)C(=O)c1ccc(N2CCC(C3CCN(C(=O)[C@](O)(c4ccccc4)C(F)(F)F)CC3)CC2)cc1Cl [Example E-60, 2-chloro-N-ethyl-N-methyl-4-{1′-[(2R)-3,3,3-trifluoro-2-hydroxy-2-phenylpropanoyl]-4,4′-bipiperidin-1-yl}benzamide]",1850,34,100,114,–
"CC(C)(C(=O)N1CCC(C2CCN(c3cccc(S(C)(=O)=O)c3)CC2)CC1)c1ccccc1 [Example D-8, 1-(2-methyl-2-phenylpropanoyl)-1′-[3-(methylsulfonyl)phenyl]-4,4′-bipiperidine]",2490,64,185,134,–
"CN(C)C(=O)c1ccc(N2CCC(C3CCN(C(=O)C4(c5ccc(F)cc5)CCC4)CC3)CC2)cc1Cl [Example A-18, 2-chloro-4-(1′-{[1-(4-fluorophenyl)cyclobutyl]carbonyl}-4,4′-bipiperidin-1-yl)-N,N-dimethylbenzamide]",4200,15,207,81,–
"O=C(c1c(F)cccc1F)N1CCC(C2CCN(c3ccc(C(=O)N4CCCC4C(F)(F)F)c(Cl)c3)CC2)CC1 (stereo not drawn) [Example E-13, 1-(3-chloro-4-{[2-(trifluoromethyl)pyrrolidin-1-yl]carbonyl}phenyl)-1′-[(2,6-difluorophenyl)carbonyl]-4,4′-bipiperidine]",2150,15,473,46,–
"O=C(c1ccc(N2CCC(C3CCN(C(=O)[C@](O)(c4ccccc4)C(F)(F)F)CC3)CC2)cc1Cl)N(CCF)CCF [Example E-67, 2-chloro-N,N-bis(2-fluoroethyl)-4-{1′-[(2R)-3,3,3-trifluoro-2-hydroxy-2-phenylpropanoyl]-4,4′-bipiperidin-1-yl}benzamide]",2100,30,171,106,–
"CN(C)C(=O)c1ccc(N2CCC(C3CCN(C(=O)C4(c5ccc(Cl)cc5)CCC4)CC3)CC2)cc1Cl [Example A-47, 2-chloro-4-(1′-{[1-(4-chlorophenyl)cyclobutyl]carbonyl}-4,4′-bipiperidin-1-yl)-N,N-dimethylbenzamide]",–,4,178,78,NO IP
"CN(C)C(=O)c1ccc(N2CCC(C3CCN(C(=O)C(O)(c4ccccc4)C(F)(F)F)CC3)CC2)cc1Cl (stereo not drawn) [Example A-36, 2-chloro-N,N-dimethyl-4-[1′-(3,3,3-trifluoro-2-hydroxy-2-phenylpropanoyl)-4,4′-bipiperidin-1-yl]benzamide]",1800,27,108,113,–
"CN(Cc1ccon1)C(=O)c1ccc(N2CCC(C3CCN(C(=O)[C@](O)(c4ccccc4)C(F)(F)F)CC3)CC2)cc1Cl [Example E-52, 2-chloro-N-(isoxazol-3-ylmethyl)-N-methyl-4-{1′-[(2R)-3,3,3-trifluoro-2-hydroxy-2-phenylpropanoyl]-4,4′-bipiperidin-1-yl}benzamide]",1420,28,206,78,–
